Measured values reported in patent publication US10398703B2, “Therapeutic compounds and uses thereof” (Kala Pharmaceuticals, Inc., priority 2013, dated 2019).
Read-outs that look alike come from different tables or passages of the source.

Legend:
[1] = Back of the eye drug exposure (PK) after topical instillation of compound MPP; format: in vivo; conditions: rabbit, topical or ocular, 50 μL of 0.5% MPP formulation, MPP 0.5%, 50 μL topical BID 5 days, Dutch-belted rabbits, 8 mm punch
Excerpt: Dutch-belted rabbits were used in these studies.
The portion of the retina and choroid collected and analyzed was an 8 mm round punch where the macula is located in humans.

[2] = Mobility of MPP nanoparticles in human cervicovaginal mucus (dark field microscopy); conditions: low pH of human cervicovaginal mucus
Procedure: In order to determine whether the generated nanoparticles have reduced interactions with mucins and are therefore able to move within mucus without becoming trapped, particles were incubated with human cervicovaginal mucus (CVM) and observed via dark field microscopy. In a typical experiment, […] of the nanoparticle suspension was added to 20 μl of CVM. Observations were made in a minimum of three distinct and randomly selected areas of the CVM sample. Control particles with known behavior were used to qualify the CVM sample as appropriate for the assay. For all compounds (except compound 55) listed in Table 4, mobility in mucus was observed and therefore the nanoparticles were deemed to be effective MPP.

[3] = choroid, read-out: AUC0-last Choroid
[4] = choroid, read-out: Cmax Choroid
[5] = retina, read-out: AUC0-last Retina

## COc1cc2c(Oc3ccc(NC(=O)Nc4cc(C)ccc4F)c(Cl)c3)ncnc2cc1OCCCN1CCC2(CC1)COC2 [Compound 12]
[1]; [3]
  AUC(0-t): 2.45 µM·h
[1]; [4]
  Cmax: 265 nM
[1]; [5]
  AUC(0-t): 0.308 µM·h
[1]; retina, read-out: Cmax Retina
  Cmax: 39 nM

## COc1cc2c(Oc3ccc(NC(=O)Nc4cc(C)on4)c(Cl)c3)ncnc2cc1OCCCN1CCC2(CC1)COC2 [Compound 9]
[1]; [3]
  AUC(0-t): 5.4 µM·h
[1]; [4]
  Cmax: 693 nM
[1]; [5]
  AUC(0-t): 0.915 µM·h
[1]; retina, read-out: Cmax Retina
  Cmax: 110 nM

## COc1cc2ncnc(Oc3ccc(NC(=O)Nc4ccc(CN5CCN(C)CC5)cc4)c(Cl)c3)c2cc1OC [Compound 55]
[2]
  solubility in CVM: soluble in the low pH of CVM

## COc1cc2c(Oc3ccc(NC(=O)Nc4cc(C)ccc4F)c(Cl)c3)ccnc2cc1OCCCN1CCC2(CC1)COC2 [Compound 25]
[1]; [3]
  AUC(0-t): 5.79 µM·h
[1]; [4]
  Cmax: 574 nM
[1]; [5]
  AUC(0-t): 0.297 µM·h
[1]; retina, read-out: Cmax Retina
  Cmax: 33 nM
